Results taken from the supplement of paper PMC11451515.

Tested on: SEM cells
Assay: cell viability relative to DMSO control; higher = less cytotoxic
Settings: 48 h
Procedure, shortened: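 Leukemia cells (NOMO1 or SEM, 500 cells/well; P12-Ichikawa, 1000 cells/well) were seeded in 5 μl in 1536-well plates after at least four passages of adaptation to each medium. They received library compounds in DMSO by pin dosing, 11 threefold points from 47 μM to 0.79 nM. Luminescence with CellTiter-Glo One was read after 48 h at 37°C. Viability is stated per plate relative to DMSO wells, with cell-free wells as background.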

[1] = HPLM + 10% dialyzed FBS, 0.000781 µM
[2] = HPLM + 10% dialyzed FBS, 0.00234 µM
[3] = HPLM + 10% dialyzed FBS, 0.00702 µM
[4] = HPLM + 10% dialyzed FBS, 0.0211 µM
[5] = HPLM + 10% dialyzed FBS, 0.0632 µM
[6] = HPLM + 10% dialyzed FBS, 0.19 µM
[7] = HPLM + 10% dialyzed FBS, 0.569 µM
[8] = HPLM + 10% dialyzed FBS, 1.71 µM
[9] = HPLM + 10% dialyzed FBS, 5.12 µM
[10] = HPLM + 10% dialyzed FBS, 15.4 µM
[11] = HPLM + 10% dialyzed FBS, 46.1 µM
[12] = RPMI 5 mM glucose + 10% FBS, 0.000781 µM
[13] = RPMI 5 mM glucose + 10% FBS, 0.00234 µM
[14] = RPMI 5 mM glucose + 10% FBS, 0.00702 µM
[15] = RPMI 5 mM glucose + 10% FBS, 0.0211 µM
[16] = RPMI 5 mM glucose + 10% FBS, 0.0632 µM
[17] = RPMI 5 mM glucose + 10% FBS, 0.19 µM
[18] = RPMI 5 mM glucose + 10% FBS, 0.569 µM
[19] = RPMI 5 mM glucose + 10% FBS, 1.71 µM
[20] = RPMI 5 mM glucose + 10% FBS, 5.12 µM
[21] = RPMI 5 mM glucose + 10% FBS, 15.4 µM
[22] = RPMI 5 mM glucose + 10% FBS, 46.1 µM
[23] = RPMI 5 mM glucose + 10% dialyzed FBS, 0.000781 µM
[24] = RPMI 5 mM glucose + 10% dialyzed FBS, 0.00234 µM
[25] = RPMI 5 mM glucose + 10% dialyzed FBS, 0.00702 µM
[26] = RPMI 5 mM glucose + 10% dialyzed FBS, 0.0211 µM
[27] = RPMI 5 mM glucose + 10% dialyzed FBS, 0.0632 µM
[28] = RPMI 5 mM glucose + 10% dialyzed FBS, 0.19 µM
[29] = RPMI 5 mM glucose + 10% dialyzed FBS, 0.569 µM
[30] = RPMI 5 mM glucose + 10% dialyzed FBS, 1.71 µM
[31] = RPMI 5 mM glucose + 10% dialyzed FBS, 5.12 µM
[32] = RPMI 5 mM glucose + 10% dialyzed FBS, 15.4 µM
[33] = RPMI 5 mM glucose + 10% dialyzed FBS, 46.1 µM

SMILES | cell viability [1] | cell viability [2] | cell viability [3] | cell viability [4] | cell viability [5] | cell viability [6] | cell viability [7] | cell viability [8] | cell viability [9] | cell viability [10] | cell viability [11] | cell viability [12] | cell viability [13] | cell viability [14] | cell viability [15] | cell viability [16] | cell viability [17] | cell viability [18] | cell viability [19] | cell viability [20] | cell viability [21] | cell viability [22] | cell viability [23] | cell viability [24] | cell viability [25] | cell viability [26] | cell viability [27] | cell viability [28] | cell viability [29] | cell viability [30] | cell viability [31] | cell viability [32] | cell viability [33]
C[S+](=O)([O-])c1ccc(C(=O)Nc2ccc(Cl)c(-c3ccccn3)c2)c(Cl)c1 | 97.9% | 98.7% | 129% | 116% | 126% | 127% | 131% | 122% | 140% | 126% | 144% | 100% | 117% | 129% | 123% | 126% | 150% | 121% | 122% | 153% | 25.2% | 139% | 104% | 98.5% | 136% | 120% | 131% | 111% | 138% | 142% | 127% | 140% | 134%
Cc1csc(NC(=O)c2sc3nc4c(c(C(F)(F)F)c3c2N)CCC4)n1 | 82% | 96.7% | 93.6% | 81.8% | 108% | 86.6% | 96% | 101% | 81.1% | 70.2% | 89.3% | 82.1% | 99.9% | 89.7% | 107% | 92.2% | 104% | 106% | 97.1% | 84% | 73.1% | 79% | 84.4% | 96.8% | 106% | 80.8% | 92.9% | 99.3% | 89.6% | 97% | 76.6% | 69.9% | 69.9%
COc1ncnc(N[S+](=O)([O-])c2ccc(N)cc2)c1OC | 33.3% | 74% | 64.9% | 77.8% | 96.9% | 75.1% | 77.2% | 46.8% | 11.4% | 5.63% | 6.09% | 46% | 102% | 82.5% | 96.4% | 101% | 88.3% | 59.3% | 44% | 6.03% | 4.36% | 5.06% | 39.2% | 96.9% | 79.2% | 114% | 118% | 92.6% | 86.1% | 50.4% | 17.9% | 8.47% | 8.64%
CN1C(=O)C[C@H](C(=O)N[C@@H](Cc2cnc[nH]2)C(=O)N2CCC[C@H]2C(N)=O)NC1=O | 117% | 108% | 142% | 121% | 111% | 127% | 122% | 120% | 116% | 97.4% | 74.3% | – | – | – | – | – | – | – | – | – | – | – | 104% | 118% | 120% | 122% | 105% | 112% | 104% | 103% | 104% | 98.1% | 50.1%
CCC(=O)N[C@H]1CC[C@H](C(=O)N(C)c2ccc(-c3nc4ccccc4o3)cc2)C1 | 75.9% | 68% | 99.7% | 94.2% | 99.8% | 104% | 101% | 89% | 110% | 115% | 96.4% | 83.3% | 51.8% | 78.4% | 89.5% | 84.7% | 101% | 99.9% | 82.2% | 74.7% | 74.2% | 40% | 91.9% | 51.8% | 83.5% | 98.9% | 98.4% | 97% | 96% | 102% | 94.7% | 91% | 45.3%
Nc1ncnc2ccccc12 | 83.3% | 87.9% | 93.9% | 18.9% | 97% | 97.1% | 109% | 91.5% | 90.5% | 93.4% | 99.5% | 97.9% | 98.7% | 118% | 13.2% | 123% | 102% | 96.9% | 123% | 99.1% | 122% | 107% | 73.9% | 76.3% | 89.6% | 16.7% | 94.4% | 86.2% | 101% | 98.6% | 91.4% | 97.6% | 99.6%
O=C\1N(N\C=C1[N]2C=CN=N2)C3=NC=NC(=C3)N4CCOCC4 | 58.1% | 74.2% | 66.2% | 69.5% | 56% | 46.9% | 20.1% | 36.9% | 21.7% | 15.8% | 12.1% | 56.6% | 102% | 108% | 95.5% | 46.8% | 28.6% | 13.6% | 13.3% | 19.2% | 14.5% | 16.8% | 52.3% | 77.4% | 74.1% | 69.3% | 66.5% | 42.8% | 17.3% | 32.8% | 19.5% | 19.9% | 16.7%
COc1cc2c(Nc3ccc(Br)cc3F)ncnc2cc1OCC1CCN(C)CC1 | 45.3% | 81.6% | 94.3% | 69.3% | 71.4% | 76.8% | 72.2% | 65% | 79.4% | 31% | 66.2% | 67.3% | 124% | 111% | 112% | 118% | 110% | 84.2% | 88.7% | 98.1% | 58.9% | 74.1% | 40% | 83.4% | 91% | 89.2% | 63.7% | 80.7% | 81.7% | 63.2% | 79.1% | 42.5% | 63.5%
